Source: article PMC10746543, “Design principles for cyclin K molecular glue degraders” (Nature Chemical Biology, 2023)
Several values for one entry are separate records, joined by “and”; a condition that tells them apart may be missing. Identical values can stand only once. Like-named read-outs stand apart in the source and are kept apart here.

Columns and labels:
CDK12–cyclin K and DDB1 = target: T1, CDK12–cyclin K and DDB1 (Homo sapiens, UniProt Q16531+Q9NYV4, K965R); test: TR-FRET ternary complex formation assay (compound titration); format: binding
T1 construct: His6–CDK12 (a.a. 713–1,052); full-length or beta-propeller B domain deletion (ΔBPB: a.a. 396–705 deleted) constructs of His6–DDB1ΔBPB, StrepII–Avi–DDB1, or His6–Spy–DDB1; made in house; host or cells: Trichoplusia ni High Five insect cells (baculovirus)
T1 sequence (Q9NYV4 713-1052 K965R): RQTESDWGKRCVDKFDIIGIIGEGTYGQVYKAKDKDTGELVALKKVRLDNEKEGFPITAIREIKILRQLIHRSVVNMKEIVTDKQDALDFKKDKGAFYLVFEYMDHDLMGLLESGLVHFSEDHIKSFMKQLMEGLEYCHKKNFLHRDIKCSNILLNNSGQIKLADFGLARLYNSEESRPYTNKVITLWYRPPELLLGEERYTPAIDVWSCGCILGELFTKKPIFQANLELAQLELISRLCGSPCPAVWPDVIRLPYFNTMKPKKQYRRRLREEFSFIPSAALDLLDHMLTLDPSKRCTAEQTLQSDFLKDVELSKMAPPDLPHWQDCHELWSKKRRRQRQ
T1 sequence (O75909 1-267 partner): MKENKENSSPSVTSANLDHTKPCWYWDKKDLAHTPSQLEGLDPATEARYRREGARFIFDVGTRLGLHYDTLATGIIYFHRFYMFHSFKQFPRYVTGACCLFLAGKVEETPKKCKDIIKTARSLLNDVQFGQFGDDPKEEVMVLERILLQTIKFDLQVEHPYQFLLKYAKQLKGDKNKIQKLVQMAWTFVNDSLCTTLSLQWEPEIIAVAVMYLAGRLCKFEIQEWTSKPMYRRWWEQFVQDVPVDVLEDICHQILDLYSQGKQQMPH
T1 sequence (Q16531 whole entry): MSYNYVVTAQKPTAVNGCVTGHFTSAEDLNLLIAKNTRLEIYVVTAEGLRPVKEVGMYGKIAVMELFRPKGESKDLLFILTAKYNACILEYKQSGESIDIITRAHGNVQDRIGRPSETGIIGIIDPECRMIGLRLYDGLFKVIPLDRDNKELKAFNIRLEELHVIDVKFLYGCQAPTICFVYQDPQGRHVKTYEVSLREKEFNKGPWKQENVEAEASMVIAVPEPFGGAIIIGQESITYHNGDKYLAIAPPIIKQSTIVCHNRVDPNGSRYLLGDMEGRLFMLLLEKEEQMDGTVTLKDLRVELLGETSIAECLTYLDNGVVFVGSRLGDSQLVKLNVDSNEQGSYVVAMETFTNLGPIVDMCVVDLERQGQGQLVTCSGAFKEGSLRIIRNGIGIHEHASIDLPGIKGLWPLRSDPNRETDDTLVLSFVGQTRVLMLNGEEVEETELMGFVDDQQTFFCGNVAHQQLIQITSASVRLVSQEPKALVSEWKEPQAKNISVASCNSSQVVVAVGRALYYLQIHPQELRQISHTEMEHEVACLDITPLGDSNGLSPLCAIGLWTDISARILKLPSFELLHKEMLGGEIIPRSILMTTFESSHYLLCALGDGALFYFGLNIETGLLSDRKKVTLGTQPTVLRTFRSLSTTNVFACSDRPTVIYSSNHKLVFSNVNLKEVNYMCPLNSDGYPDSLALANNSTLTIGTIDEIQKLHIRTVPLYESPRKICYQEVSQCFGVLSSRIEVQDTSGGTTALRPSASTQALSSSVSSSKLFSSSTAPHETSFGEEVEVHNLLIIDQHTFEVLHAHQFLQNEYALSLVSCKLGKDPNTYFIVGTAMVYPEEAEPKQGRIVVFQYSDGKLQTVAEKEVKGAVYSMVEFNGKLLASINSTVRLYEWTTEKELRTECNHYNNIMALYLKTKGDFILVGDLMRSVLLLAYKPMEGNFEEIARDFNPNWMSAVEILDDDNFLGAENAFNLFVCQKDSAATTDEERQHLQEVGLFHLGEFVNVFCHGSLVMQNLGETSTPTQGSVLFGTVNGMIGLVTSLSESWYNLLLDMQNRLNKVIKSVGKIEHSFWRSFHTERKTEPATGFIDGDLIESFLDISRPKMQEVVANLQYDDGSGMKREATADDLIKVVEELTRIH
Procedure, shortened: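 Signal was the ratio of 520 nm to 490 nm fluorescence, measured after a 70 μs delay that reduced background.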

HEK293T cells = test: Drug sensitivity assay (CellTiter-Glo viability) with or without MLN4924 pretreatment; format: cell-based, human; details: Supplementary Table 2
Procedure, shortened: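 HEK293T–Cas9, 0.15 × 10^6 ml^−1; pretreat DMSO vs 100 nM MLN4924; drugs dispensed after 2 h; 3 d exposure; CellTiter-Glo; viability vs DMSO control.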

CDK2–cyclin A = target: T2, CDK2–cyclin A (Homo sapiens, UniProt P24941); test: Lanthascreen kinase binding assay, CDK2; details: for Lanthascreen signal, sheet CDK2: raw replicates, experiment r36-r46
T2 construct: purchased Thermo Fisher
Procedure: (§1) Lanthascreen experiments were performed using commercially available reagents (Thermo Fisher) and according to the manufacturer’s instructions.

[1] = tested on: cyclin K–eGFP degradation reporter; test: Cyclin K reporter stability analysis (dual-color cyclin K–eGFP reporter); format: cell-based, human; details: Supplementary Table 2; HEK293T cycK-eGFP reporter, 5 h; read-out: Cellular assays DC50
Procedure, shortened: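 Cells (HEK293T–Cas9, reporter-expressing) at 1 × 10^6 ml^−1; 5 h compound or DMSO; flow cytometry; gMFI eGFP ÷ mCherry on round mCherry-positive events; normalized to 3 DMSO controls.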

CDK9–cyclin T = target: T3, CDK9–cyclin T (Homo sapiens, UniProt P50750); test: Lanthascreen kinase binding assay, CDK9; details: for Lanthascreen TR-FRET signal (raw ratio), sheet CDK9: third titration set (r25), duplicates
T3 construct: purchased Thermo Fisher
T3 sequence (P50750 whole entry): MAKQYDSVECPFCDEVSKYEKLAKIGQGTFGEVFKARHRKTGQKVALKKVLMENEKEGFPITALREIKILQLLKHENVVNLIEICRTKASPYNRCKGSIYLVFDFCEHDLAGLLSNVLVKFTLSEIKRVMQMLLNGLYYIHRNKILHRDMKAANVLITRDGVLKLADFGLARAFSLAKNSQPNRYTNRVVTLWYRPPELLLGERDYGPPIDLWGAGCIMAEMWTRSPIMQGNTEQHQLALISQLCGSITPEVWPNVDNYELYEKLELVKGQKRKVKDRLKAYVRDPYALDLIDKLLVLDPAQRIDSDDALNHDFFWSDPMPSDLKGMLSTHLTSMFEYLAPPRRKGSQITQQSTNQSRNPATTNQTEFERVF
T3 sequence (O60563 whole entry partner): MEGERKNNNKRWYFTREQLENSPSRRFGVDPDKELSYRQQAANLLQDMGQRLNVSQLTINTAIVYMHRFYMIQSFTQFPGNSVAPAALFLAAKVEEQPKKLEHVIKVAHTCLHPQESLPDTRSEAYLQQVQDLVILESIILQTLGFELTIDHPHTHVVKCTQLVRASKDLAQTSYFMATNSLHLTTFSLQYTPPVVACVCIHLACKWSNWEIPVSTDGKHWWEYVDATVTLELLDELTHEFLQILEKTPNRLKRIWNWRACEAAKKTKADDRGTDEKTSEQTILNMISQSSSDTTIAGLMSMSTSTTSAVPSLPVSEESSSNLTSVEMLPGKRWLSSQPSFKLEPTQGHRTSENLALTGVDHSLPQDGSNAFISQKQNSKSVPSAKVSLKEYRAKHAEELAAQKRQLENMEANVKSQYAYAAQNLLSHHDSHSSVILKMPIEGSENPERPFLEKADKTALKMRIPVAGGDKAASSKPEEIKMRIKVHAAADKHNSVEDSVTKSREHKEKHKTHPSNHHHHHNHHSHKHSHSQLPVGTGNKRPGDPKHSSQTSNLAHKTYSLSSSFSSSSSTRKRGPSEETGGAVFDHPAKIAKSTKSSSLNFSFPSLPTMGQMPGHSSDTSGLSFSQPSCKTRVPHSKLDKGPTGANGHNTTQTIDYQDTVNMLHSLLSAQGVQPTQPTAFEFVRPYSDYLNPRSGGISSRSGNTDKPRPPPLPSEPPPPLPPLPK
Procedure: as §1

CDK12–cyclin K = CDK12–cyclin K (Homo sapiens, UniProt Q9NYV4); test: Lanthascreen kinase binding assay, CDK12; details: for Lanthascreen raw signal, sheet CDK12: series r37, duplicates
Chain of CDK12–cyclin K (Q9NYV4 713-1052): as the sequence (Q9NYV4 713-1052 K965R) above, with R253K counted along it
Chain of CDK12–cyclin K (O75909 1-267 partner limits assumed): as the sequence (O75909 1-267 partner) above
Procedure: as §1

TR-FRET signal at compound concentration 4.68 nM (CDK12–cyclin K and DDB1; compound concentration 4.68 nM, raw replicate titration data): 0.1341 and 0.1393 | TR-FRET signal at compound concentration 21.6 nM (CDK12–cyclin K and DDB1; compound concentration 21.6 nM, raw replicate titration data): 0.1505 and 0.1671 | TR-FRET signal at compound concentration 36 nM (CDK12–cyclin K and DDB1; compound concentration 36 nM, raw replicate titration data): 0.1763 and 0.1953 | TR-FRET signal at compound concentration 79.2001 nM (CDK12–cyclin K and DDB1; compound concentration 79.2001 nM, raw replicate titration data): 0.2244 and 0.2373 | TR-FRET signal at compound concentration 158.4 nM (CDK12–cyclin K and DDB1; compound concentration 158.4 nM, raw replicate titration data): 0.3075 and 0.3209 | TR-FRET signal at compound concentration 309.6 nM (CDK12–cyclin K and DDB1; compound concentration 309.6 nM, raw replicate titration data): 0.4615 and 0.4691 | TR-FRET signal at compound concentration 626.401 nM (CDK12–cyclin K and DDB1; compound concentration 626.401 nM, raw replicate titration data): 0.7336 and 0.7393 | TR-FRET signal at compound concentration 1252.8 nM (CDK12–cyclin K and DDB1; compound concentration 1252.8 nM, raw replicate titration data): 1.129 and 1.14 | TR-FRET signal at compound concentration 2448 nM (CDK12–cyclin K and DDB1; compound concentration 2448 nM, raw replicate titration data): 1.631 and 1.657 | TR-FRET signal at compound concentration 9936.01 nM (CDK12–cyclin K and DDB1; compound concentration 9936.01 nM, raw replicate titration data): 2.437 and 2.497 | TR-FRET signal at compound concentration 20016 nM (CDK12–cyclin K and DDB1; compound concentration 20016 nM, raw replicate titration data): 2.527 and 2.638 | DDB1–CDK12 complex formation, result in words (CDK12–cyclin K and DDB1; in vitro TR-FRET): poorer glues | EC50 (CDK12–cyclin K and DDB1; sheet MOESM7, read-out: log TR-FRET EC50 (converted)): 1.84 µM | Lanthascreen signal, sheet CDK2 (CDK2–cyclin A; Compound 0.038147 nM): 0.01372 and 0.01355 | Lanthascreen signal, sheet CDK2 (CDK2–cyclin A; Compound 0.152588 nM): 0.01402 and 0.01425 | Lanthascreen signal, sheet CDK2 (CDK2–cyclin A; Compound 0.610352 nM): 0.0137 and 0.01464 | Lanthascreen signal, sheet CDK2 (CDK2–cyclin A; Compound 9.76563 nM): 0.01391 and 0.01419 | Lanthascreen signal, sheet CDK2 (CDK2–cyclin A; Compound 39.0625 nM): 0.01392 and 0.01397 | Lanthascreen signal, sheet CDK2 (CDK2–cyclin A; Compound 156.25 nM): 0.01435 and 0.01404 | Lanthascreen signal, sheet CDK2 (CDK2–cyclin A; Compound 625 nM): 0.01359 and 0.01432 | Lanthascreen signal, sheet CDK2 (CDK2–cyclin A; Compound 2500 nM): 0.01402 and 0.01364 | Lanthascreen signal, sheet CDK2 (CDK2–cyclin A; Compound 10000 nM): 0.01203 and 0.01167 | IC50 (CDK2–cyclin A; Lanthascreen, average, Extended Data Fig. 8, read-out: CDK2 IC50): > 10000 nM | IC50 (CDK2–cyclin A; Supplementary Table 2, read-out: Lanthascreen IC50 [nM] CDK2): > 10000 nM | DC50 [1]: > 10 µM | IC50 (CDK9–cyclin T; Supplementary Table 2, read-out: Lanthascreen IC50 [nM] CDK9): 3200 nM | Lanthascreen TR-FRET signal (raw ratio), sheet CDK9 (CDK9–cyclin T; compound 0.038147 nM): 0.01966 and 0.01664 | Lanthascreen TR-FRET signal (raw ratio), sheet CDK9 (CDK9–cyclin T; compound 0.152588 nM): 0.02094 and 0.01978 | Lanthascreen TR-FRET signal (raw ratio), sheet CDK9 (CDK9–cyclin T; compound 0.610352 nM): 0.02169 and 0.01748 | Lanthascreen TR-FRET signal (raw ratio), sheet CDK9 (CDK9–cyclin T; compound 9.76563 nM): 0.02175 and 0.01903 | Lanthascreen TR-FRET signal (raw ratio), sheet CDK9 (CDK9–cyclin T; compound 39.0625 nM): 0.02145 and 0.01745 | Lanthascreen TR-FRET signal (raw ratio), sheet CDK9 (CDK9–cyclin T; compound 156.25 nM): 0.02109 and 0.01723 | Lanthascreen TR-FRET signal (raw ratio), sheet CDK9 (CDK9–cyclin T; compound 625 nM): 0.02056 and 0.01753 | Lanthascreen TR-FRET signal (raw ratio), sheet CDK9 (CDK9–cyclin T; compound 2500 nM): 0.01726 and 0.0135 | Lanthascreen TR-FRET signal (raw ratio), sheet CDK9 (CDK9–cyclin T; compound 10000 nM): 0.01114 and 0.009536 | IC50 (CDK12–cyclin K; Lanthascreen, average, Extended Data Fig. 8, read-out: CDK12 IC50): > 10000 nM | IC50 (CDK12–cyclin K; Supplementary Table 2, read-out: Lanthascreen IC50 [nM] CDK12): > 10000 nM | Lanthascreen raw signal, sheet CDK12 (CDK12–cyclin K; compound 0.038147 nM): 0.01392 and 0.01331 | Lanthascreen raw signal, sheet CDK12 (CDK12–cyclin K; compound 0.152588 nM): 0.01475 and 0.01452 | Lanthascreen raw signal, sheet CDK12 (CDK12–cyclin K; compound 0.610352 nM): 0.01495 | Lanthascreen raw signal, sheet CDK12 (CDK12–cyclin K; compound 9.76563 nM): 0.01647 and 0.01469 | Lanthascreen raw signal, sheet CDK12 (CDK12–cyclin K; compound 39.0625 nM): 0.0142 and 0.01474 | Lanthascreen raw signal, sheet CDK12 (CDK12–cyclin K; compound 156.25 nM): 0.01388 and 0.01469 | Lanthascreen raw signal, sheet CDK12 (CDK12–cyclin K; compound 625 nM): 0.01464 and 0.015 | Lanthascreen raw signal, sheet CDK12 (CDK12–cyclin K; compound 2500 nM): 0.01337 and 0.01367 | Lanthascreen raw signal, sheet CDK12 (CDK12–cyclin K; compound 10000 nM): 0.01057 and 0.01115
Structure (SMILES): CC[C@H](CO)Nc1nc(NCc2ccc(-c3ccccn3)cc2)c2ncn(-c3cnn(C)c3)c2n1 [DS20]
EC50 (HEK293T cells; Homo sapiens, HEK-293T, HEK293T viability, 72 h, compound alone, read-out: Cellular assays EC50): > 10 µM | Toxicity rescue (HEK293T cells; MLN4924-mediated cytotoxicity rescue, 10 µM used where n.d.): 0%
